Experimental data published in patent US9827189B2, “Stable parenteral DNJ compositions” (AMICUS THERAPEUTICS, INC., priority 2013, dated 2017).

Key:
[1] = tested on: human whole blood; experiment: Hemolytic potential in human whole blood; format: cell-based; details: 37 ° C. 30 minutes
Description: (§1) 1-DNJ-HCl was dissolved in sodium citrate buffer. 1-DNJ-HCl concentration was 30 mg/mL (resulting free 1-DNJ concentration was 25 mg/mL); sodium citrate buffer concentration was 50 mM at pH 5.0. 1-DNJ-HCl formulation was added to whole blood samples of male human, rat, and cynomolgus monkey. […]. Buffer served as a negative control, while Triton-X 100 (Lysing agent) served as a positive control. Additionally blood sample without any additions was used as a negative control. The samples were stored at 4° C. Blood samples were incubated at 37 ° C. for 30 minutes with the 1-DNJ-HCl formulation, after which the samples were centrifuged. The amount of hemoglobin in the supernatant from each centrifuged sample was measured using a commercially available hemoglobin assay kit (BioAssay Systems, QuantiChrom™ Hemoglobin Assay Kit) and the Tecan microplate reader.

[2] = tested on: cynomolgus monkey whole blood; experiment: Hemolytic potential in cynomolgus monkey whole blood; format: cell-based; details: 37 ° C. 30 minutes
Description: as §1

[3] = tested on: rat whole blood; experiment: Hemolytic potential in rat whole blood; format: cell-based, Sprague Dawley rat; details: 37 ° C. 30 minutes
Description: as §1

[4] = Stability and integrity of 1-DNJ-HCl in buffer solutions at 60° C. by NP-HPLC (UV and CAD) and discoloration; format: physicochemical; details: 1-DNJ/buffer formulations with a pH in the range of about 6.0-7.5
Description: 1-DNJ-HCl was dissolved in sodium phosphate buffer. 1-DNJ-HCl concentration was 60 mg/mL; sodium phosphate buffer concentration was 100 mM at pH 4.89. The formulation was stored at 60° C. for 4 days. 1-DNJ-HCl solution in water was used as a control. Reaction rate for small molecules such as 1-DNJ-HCl generally follows Arrhenius equation where reaction rate nearly doubles for every 10° C. increase in the temperature. Thus, under this model, the reaction rate at 60° C. would be 2^5 or 32 times the reaction rate at 10° C. Therefore during 4 days at 60° C. 1-DNJ-HCl would degrade by approximately the same percentage as during 128 days (4*32) at 10° C. The stability of 1-DNJ-HCl was measured by normal phase high performance liquid chromatography (NP-HPLC). 1-DNJ-HCl was recorded by UV chromatograms and by Charged Aerosol Detector (CAD) chromatograms. Mobile phase consisted of ACN/30 mM Ammonium Acetate (90/10, v/v). The flow rate was 1.0 ml/min with 5 μl injection at 400° C. UV absorbance was measured at 220 nm CAD detector settings were 35.0 psi, Gain: 100 pA. 1-DNJ-HCl was dissolved in sodium acetate buffer. The 1-DNJ-HCl concentration was 60 mg/mL; sodium acetate buffer concentration was 50 mM at pH 5.5. The formulation was stored at 60° C. for 4 days. 1-DNJ-HCl solution in water was used as control. Reaction rate for small molecules such as 1-DNJ-HCl generally follows the Arrhenius equation, in which the reaction rate nearly doubles for every 10°K increase in the temperature. Thus the reaction rate, under this model, at 60° C. would be 2^5 or 32 times the reaction rate at 10° C. Therefore during 4 days at 60° C. 1-DNJ-HCl would degrade by approximately same percentage as during 128 days at 10° C. The stability of 1-DNJ-HCl was measured by NP-HPLC. Presence of 1-DNJ-HCl was recorded by UV absorbance detector and by Charged Aerosol Detector. Mobile phase consisted of ACN/30 mM Ammonium Acetate (90/10, v/v). The flow rate was 1.0 ml/min with 5 μl injection at 400 C. UV absorbance was measured at 220 nm. CAD detector settings were 35.0 psi, Gain: 100 pA. 1-DNJ-HCl was dissolved in sodium citrate buffer that further includes EDTA. 1-DNJ-HCl concentration was 60 mg/mL; sodium citrate buffer concentration was 50 mM at pH 4.6. The EDTA concentration was 0.05% w/v. Some samples were stored under the nitrogen atmosphere (essentially 100% nitrogen) while others were stored under air. The formulation was stored at 60° C. for 8 days. Stability of 1-DNJ-HCl was measured by NP-HPLC. Presence of 1-DNJ-HCl was recorded by UV absorbance detector and by Charged Aerosol Detector. Mobile phase consisted of ACN/30 mM Ammonium Acetate (90/10, v/v). The flow rate was 1.0 ml/min with 5 μl injection at 400 C. UV absorbance was measured at 220 nm. CAD detector settings were 35.0 psi, Gain: 100 pA. 1-DNJ-HCl was dissolved in sodium citrate buffer. 1-DNJ-HCl concentration was 60 mg/mL; sodium citrate buffer concentration was 50 mM at pH 4.7. The formulation was stored at 60° C. for 8 days. 1-DNJ-HCl solution in water was used as control. Stability of 1-DNJ-HCl was measured by NP-HPLC. Presence of 1-DNJ-HCl was recorded by UV absorbance detector and by Charged Aerosol Detector. Mobile phase consisted of ACN/30 mM Ammonium Acetate (90/10, v/v). The flow rate was 1.0 ml/min with 5 μl injection at 400 C. UV absorbance was measured at 220 nm. CAD detector settings were 35.0 psi, Gain: 100 pA. 1-DNJ-HCl was dissolved in sodium citrate buffer. 1-DNJ-HCl concentration was 60 mg/mL; sodium citrate buffer concentration was 50 mM at pH 5.0. The formulation was stored at 60° C. for 17 days. The samples were stored under the nitrogen atmosphere (essentially 100% nitrogen). 1-DNJ-HCl solution in water was used as control. Reaction rate for small molecules such as 1-DNJ-HCl generally follows Arrhenius equation where reaction rate nearly doubles for every 10°K increase in the temperature. Thus reaction rate at 60° C. would be 2^5 or 32 times the reaction rate at 10° C. Therefore during 17 days at 60° C. […]

[5] = 500 μL blood mixed with 500 μL sample (30 mg/mL AT2220 or 0.1% Triton X-100)
[6] = 500 μL blood mixed with 500 μL sample, 30 mg/mL AT2220 dilution 1, 0.1% Triton X-100 dilution 100
[7] = supernatant, 500 μL blood mixed with 500 μL sample (30 mg/mL AT2220 or 0.1% Triton X-100)

Compound	% RBC lysis [1, 5] [%]	Avg OD (n = 4) [1, 6]	Hemoglobin [1, 7] [mg/dL]	% RBC lysis [2, 5] [%]	Avg OD (n = 4) [2, 6]	Hemoglobin [2, 7] [mg/dL]	% RBC lysis [3, 5] [%]	Avg OD (n = 4) [3, 6]	Hemoglobin [3, 7] [mg/dL]	Discoloration [4]
Triton X-100	100.0	0.2768	6899	100.0	0.2000	4984	100.0	0.2567	6398	–
OC[C@H]1NC[C@H](O)[C@@H](O)[C@@H]1O [1-DNJ, 1-deoxynojirimycin]	–	–	–	–	–	–	–	–	–	discoloration may occur
